Test results from PubChem BioAssay AID2744 (NMMLSC, 2010).
Calls of active or inactive are those of the source.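 The calls were made as follows: active = fitted half-maximal concentration for changing reporter fluorescence at or below a set limit; inactive = the rest.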

These compounds were tested against Citrate synthase, peroxisomal (Saccharomyces cerevisiae (strain ATCC 204508 / S288c)) (UniProt P08679) (assay: yeast TOR pathway CIT2-GFP reporter potency – flow cytometry, MLPCN hits, dose response (AID 2744)). Conditions: S. cerevisiae CIT2-GFP strain, 3 h, at 33 µM (top of the series).
Chain of Citrate synthase, peroxisomal (Saccharomyces cerevisiae (strain ATCC 204508 / S288c)) (P08679 whole entry, looked up): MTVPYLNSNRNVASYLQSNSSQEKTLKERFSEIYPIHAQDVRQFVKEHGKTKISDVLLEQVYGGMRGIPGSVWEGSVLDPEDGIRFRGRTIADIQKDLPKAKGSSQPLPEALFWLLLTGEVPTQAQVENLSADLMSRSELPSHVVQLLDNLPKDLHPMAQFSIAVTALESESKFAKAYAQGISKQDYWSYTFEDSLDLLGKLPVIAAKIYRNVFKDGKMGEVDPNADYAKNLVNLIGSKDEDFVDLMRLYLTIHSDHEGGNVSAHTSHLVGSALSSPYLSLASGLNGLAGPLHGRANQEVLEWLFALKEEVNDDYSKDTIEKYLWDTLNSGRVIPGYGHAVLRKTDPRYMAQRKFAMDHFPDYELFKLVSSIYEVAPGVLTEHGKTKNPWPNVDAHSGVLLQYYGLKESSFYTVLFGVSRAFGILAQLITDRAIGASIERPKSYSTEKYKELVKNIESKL
With O=C1NC(=O)N(CCc2ccc(F)cc2)C(=O)/C1=C/c1cccs1 the “GFP fluorescence, higher = induction” value was “inactive”.
In the case of COC(=O)CCC(=O)OC1(C)C(=O)C2=COC(c3ccc(OC)cc3)=CC2=C(Br)C1=O (stereo not given), the “GFP fluorescence, higher = induction” value is reported as “inactive”.
In the case of Cc1ccc(NC(=O)c2ccc(Cl)c(N3C(=O)C=CC3=O)c2)cc1, the “GFP fluorescence, higher = induction” value is reported as “inactive”.
O=C1ON=C(c2ccccc2)/C1=C/c1ccc(-c2ccccc2[N+](=O)[O-])o1 was tested, and the “GFP fluorescence, higher = induction” value was “inactive”.
With C#CCOCCOCCOCCNc1nc(N2CCN(C(=O)CCCCCCCCCCNC(=O)[C@H](CCCCN)n3cc(CCO)nn3)CC2)nc(N2CCN(C(=O)CCCCCCCCCCNC(=O)[C@H](CCCN=C(N)N)n3cc(C[C@@H](C)CC)nn3)CC2)n1 the “GFP fluorescence, higher = induction” value was “inactive”.
In the case of Cc1ccc2[nH]cc(/C=C/c3cc[n+](C)cc3)c2c1, the “GFP fluorescence, higher = induction” value is reported as “inactive”.
In the case of O=c1oc2ccccc2c(O)c1[C@H]1c2ccc(O)cc2Oc2c1c(=O)oc1ccccc21, the “GFP fluorescence, higher = induction” value is reported as “inactive”.
For Oc1c(C(Nc2nc3ccccc3s2)c2ccco2)ccc2cccnc12 (stereo not given), the “GFP fluorescence, higher = induction” value was “inactive”.
With Cc1cccc(C)c1NC(=O)C(Cl)C(=O)c1ccccc1 (stereo not given) the “GFP fluorescence, higher = induction” value was “inactive”.
With Cc1cc(C)c(C)c(S(=O)(=O)ON2C(=O)c3ccccc3C2=O)c1C the “GFP fluorescence, higher = induction” value was “inactive”.
Cc1cc(C)c(S(=O)(=O)ON2C(=O)c3ccccc3C2=O)cc1C was tested, and the “GFP fluorescence, higher = induction” value was “inactive”.
In the case of Oc1ccc(CNc2ccccc2)c2cccnc12, the “GFP fluorescence, higher = induction” value is reported as “inactive”.
For O=C(Nc1ccc(Cl)cc1Cl)c1cccc(N2C(=O)C=CC2=O)c1, the “GFP fluorescence, higher = induction” value was “inactive”.
For Oc1ccc2ccccc2c1/C=N/Nc1nnc(-c2ncc[nH]2)c2ccccc12, the “GFP fluorescence, higher = induction” value was “inactive”.
For O=C(Oc1ccnc2cc(Cl)ccc12)N1CCOCC1, the “GFP fluorescence, higher = induction” value was “inactive”.
For CCc1cc(C(=O)Nc2nc(-c3ccccn3)cs2)sc1C, the “GFP fluorescence, higher = induction” value was “inactive”.
O=C(O)c1ccn2c(C(=O)c3ccccc3)c(-c3ccccc3)cc2c1 was tested, and the “GFP fluorescence, higher = induction” value was “inactive”.
For O=[N+]([O-])c1cc(O)c2ncccc2c1, the “GFP fluorescence, higher = induction” value was “inactive”.
With COc1ccccc1C(=O)NNC(=S)NC(=O)c1ccco1 the “GFP fluorescence, higher = induction” value was “inactive”.
For C/C(=N/NC(=O)c1ccc(C(C)(C)C)cc1)c1ccccn1, the “GFP fluorescence, higher = induction” value was “inactive”.
In the case of CN(c1ccccc1)c1ccc(/C=c2\s/c(=C(/C#N)C(=O)C(C)(C)C)n(Cc3ccco3)c2=O)cc1, the “GFP fluorescence, higher = induction” value is reported as “inactive”.
N#C/C(=C\c1ccccn1)c1nc2ccccc2s1 was tested, and the “GFP fluorescence, higher = induction” value was “inactive”.
With Cc1nn(C)c(C)c1N1C(=O)c2cccc3c(Br)ccc(c23)C1=O the “GFP fluorescence, higher = induction” value was “inactive”.
With COc1ccc(-c2cc3nc4n(c(=O)c3s2)CCC4)cc1 the “GFP fluorescence, higher = induction” value was “inactive”.
For Cc1ccccc1N1C(=O)C(Cl)=C(N2CCN(c3ccccc3)CC2)C1=O, the “GFP fluorescence, higher = induction” value was “inactive”.
In the case of Cc1ccc(/C=C/C(=O)c2ccc([N+](=O)[O-])o2)cc1, the “GFP fluorescence, higher = induction” value is reported as “inactive”.
In the case of CCn1c(/C=C/c2ccc([N+](=O)[O-])o2)nc2ccccc2c1=O, the “GFP fluorescence, higher = induction” value is reported as “inactive”.
For CC(Oc1ccc(Br)cc1)C(=O)Nc1nc(-c2ccccn2)cs1 (stereo not given), the “GFP fluorescence, higher = induction” value was “inactive”.
In the case of COc1ccc(C(=O)/C=C2/C(=O)Nc3ccccc32)cc1, the “GFP fluorescence, higher = induction” value is reported as “inactive”.
O=C(CSC1=NS(=O)(=O)c2ccccc21)Nc1ccccc1 was tested, and the “GFP fluorescence, higher = induction” value was “inactive”.
For CCc1ccc(/C=C/C(=O)c2cc(Br)ccc(=O)c2O)cc1, the “GFP fluorescence, higher = induction” value was “inactive”.
In the case of C#CCOCCOCCOCCNc1nc(N2CCN(C(=O)CCCCCCCCCCNC(=O)[C@@H](CCC(=O)O)n3cc(CCCCCN)nn3)CC2)nc(N2CCN(C(=O)CCCCCCCCCCNC(=O)[C@H](CCCCN)n3cc(C[C@@H](C)CC)nn3)CC2)n1, the “GFP fluorescence, higher = induction” value is reported as “inactive”.
With COc1cccc(/C=C/C(=O)c2c(O)cc(C)oc2=O)c1O the “GFP fluorescence, higher = induction” value was “inactive”.
In the case of O=[N+]([O-])c1ccc(S(=O)(=O)c2ccccc2)nc1, the “GFP fluorescence, higher = induction” value is reported as “inactive”.
For COc1ccc(CCNC2=C(Cl)C(=O)N(CCc3ccc(OC)c(OC)c3)C2=O)cc1OC, the “GFP fluorescence, higher = induction” value was “inactive”.
For CCN1/C(=C/C(C)=C/c2sc3ccccc3[n+]2CC)Sc2ccccc21, the “GFP fluorescence, higher = induction” value was “inactive”.
In the case of CCOC(=O)c1cc(-c2ccc(/C=C3/C(=O)NC(=O)C(C#N)=C3C)o2)ccc1Cl, the “GFP fluorescence, higher = induction” value is reported as “inactive”.
For CCC(=O)Oc1oc(-c2ccccc2)nc1C=Nc1ccccc1OC, the “GFP fluorescence, higher = induction” value was “inactive”.
With CCOc1ccc(C(C)=O)cc1N1C(=O)C2C3C=CC(O3)C2C1=O (stereo not given) the “GFP fluorescence, higher = induction” value was “inactive”.
COc1ccccc1OCCCc1c(C)n[nH]c1C was tested, and the “GFP fluorescence, higher = induction” value was “inactive”.
In the case of Cc1ccc(/C=C2\SC(=S)N(Cc3ccccc3)C2=O)o1, the “GFP fluorescence, higher = induction” value is reported as “inactive”.
CN(C)C(=O)Oc1ccnc2cc(Cl)ccc12 was tested, and the “GFP fluorescence, higher = induction” value was “inactive”.
COc1ccccc1N=Cc1nc(-c2ccccc2)oc1OC(C)=O was tested, and the “GFP fluorescence, higher = induction” value was “inactive”.
In the case of C=CCn1c(C)c(/C=C/c2cc[n+](C)cc2)c2ccccc21, the “GFP fluorescence, higher = induction” value is reported as “inactive”.
CC(=O)N(C(C)=O)c1ncnc2c1c(-c1ccc(Cl)cc1)nn2C(C)(C)C was tested, and the “GFP fluorescence, higher = induction” value was “inactive”.
In the case of Cc1ccc(C(=O)NNC(=S)NC(=O)COc2ccccc2)cc1, the “GFP fluorescence, higher = induction” value is reported as “inactive”.
For C=CCOc1ccccc1C(=O)/C=C1/C(=O)Nc2ccccc21, the “GFP fluorescence, higher = induction” value was “inactive”.
With COc1cc(/C=C2/C(=O)c3cccc([N+](=O)[O-])c3C2=O)c(Br)cc1O the “GFP fluorescence, higher = induction” value was “inactive”.
With Cc1ccc(C2=NOC(=O)/C2=C\c2ccc(C)o2)cc1 the “GFP fluorescence, higher = induction” value was “inactive”.
In the case of Oc1c(CN2CCN(c3ccccc3)CC2)cc(Br)c2cccnc12, the “GFP fluorescence, higher = induction” value is reported as “inactive”.
In the case of Cc1c(C(=O)Nc2nc(-c3ccccn3)cs2)oc2ccccc12, the “GFP fluorescence, higher = induction” value is reported as “inactive”.
Cc1ccccc1[C@]1(C)ON(c2ccccc2C(F)(F)F)C1=O was tested, and the “GFP fluorescence, higher = induction” value was “inactive”.
With O=C1/C(=C\c2ccc(O)c(O)c2)SC(=S)N1Cc1ccccc1 the “GFP fluorescence, higher = induction” value was “inactive”.
C=CCN1C(=O)/C(=C/c2ccc(-c3ccc(F)cc3)o2)SC1=S was tested, and the “GFP fluorescence, higher = induction” value was “inactive”.
For COc1ccc(CCNC2=C(Cl)C(=O)N(CCc3ccccc3)C2=O)cc1OC, the “GFP fluorescence, higher = induction” value was “inactive”.
CN(C)NC(=S)Nc1ccc(S(=O)(=O)N2CCCCC2)cc1 was tested, and the “GFP fluorescence, higher = induction” value was “inactive”.
With CCc1cccc2sc(N3CCN(C(=O)c4ccc([N+](=O)[O-])o4)CC3)nc12 the “GFP fluorescence, higher = induction” value was “inactive”.
In the case of C#CCOCCOCCOCCNc1nc(N2CCN(C(=O)CCCCCCCCCCNC(=O)[C@H](CCCCN)n3cc(CCCC(=O)O)nn3)CC2)nc(N2CCN(C(=O)CCCCCCCCCCNC(=O)[C@H](CCCN=C(N)N)n3cc(C[C@@H](C)CC)nn3)CC2)n1, the “GFP fluorescence, higher = induction” value is reported as “inactive”.
With CCCCC1OC23CCCCC2C(C#N)(C(=N)O3)C1(C#N)C#N (stereo not given) the “GFP fluorescence, higher = induction” value was “inactive”.
In the case of COc1cc(/C=C/c2ccc3c(Br)cc(Br)c(O)c3n2)ccc1O, the “GFP fluorescence, higher = induction” value is reported as “inactive”.
In the case of Cc1c(C)c2ccc(Oc3ccc([N+](=O)[O-])cc3C(F)(F)F)c(C)c2oc1=O, the “GFP fluorescence, higher = induction” value is reported as “inactive”.
With CSC1=NS(=O)(=O)c2c(C)nn(C)c2S1 the “GFP fluorescence, higher = induction” value was “inactive”.
For COc1ccc(/C=C2/C(=O)ON=C2c2ccccc2)cc1OC, the “GFP fluorescence, higher = induction” value was “inactive”.
In the case of Cc1ccc(S(=O)(=O)N2CC(C(=O)O)=CC[C@H]2c2ccc(Cl)cc2)cc1, the “GFP fluorescence, higher = induction” value is reported as “inactive”.
With Cc1ccc(N=Nc2ccc(O)c3ncccc23)cc1 the “GFP fluorescence, higher = induction” value was “inactive”.
For Cc1cc(=O)n2c3c(sc2n1)C(=O)N(Cc1ccccc1)C3=O, the “GFP fluorescence, higher = induction” value was “inactive”.
For O=C(NC(=S)Nc1ccc2oc(=O)ccc2c1)c1cccc(Cl)c1, the “GFP fluorescence, higher = induction” value was “inactive”.
O=C(c1ccccc1)c1ccccc1N1C(=O)C=CC1=O was tested, and the “GFP fluorescence, higher = induction” value was “inactive”.
CN(C)c1ccc(/C=C/c2cc[n+](C)cc2)cc1 was tested, and the “GFP fluorescence, higher = induction” value was “inactive”.
With CC[C@H](C)/C=C(C)/C=C/C1=CC2=C(Cl)C(=O)[C@@](C)(OC(C)=O)C(=O)C2=CO1 the “GFP fluorescence, higher = induction” value was “inactive”.
With COc1ccccc1N1C(=O)c2cccc3c(C(=O)O)ccc(c23)C1=O the “GFP fluorescence, higher = induction” value was “inactive”.
For O=C1C=CC(=O)N1c1cccc(-c2ccccc2)c1, the “GFP fluorescence, higher = induction” value was “inactive”.
O=[N+]([O-])c1cc(CN2CCN(c3cccc(C(F)(F)F)c3)CC2)c2cccnc2c1O was tested, and the “GFP fluorescence, higher = induction” value was “inactive”.
For O=C(Nc1cccc(-c2csc(Nc3ccccc3)n2)c1)c1ccccc1, the “GFP fluorescence, higher = induction” value was “inactive”.
For CC(C)[C@@]1(c2ccc(Cl)cc2)ON(c2ccccc2C(F)(F)F)C1=O, the “GFP fluorescence, higher = induction” value was “inactive”.
Cc1ccc(NC(=O)CCc2ccccc2)cc1S(=O)(=O)N1CCOCC1 was tested, and the “GFP fluorescence, higher = induction” value was “inactive”.
For O=C1N(c2ccccc2C(F)(F)F)O[C@@]1(c1ccccc1)C1CCCCC1, the “GFP fluorescence, higher = induction” value was “inactive”.
With O=C(Oc1c(Cl)cc(Cl)c2cccnc12)c1cccs1 the “GFP fluorescence, higher = induction” value was “inactive”.
In the case of O=C(CS(=O)c1ccccc1[N+](=O)[O-])Oc1ccc(Br)cc1 (stereo not given), the “GFP fluorescence, higher = induction” value is reported as “inactive”.
For Oc1c(Br)cc(Br)cc1C=Nc1ccc2c(c1)OCO2, the “GFP fluorescence, higher = induction” value was “inactive”.
O=C(C#Cc1ccccc1)c1ccco1 was tested, and the “GFP fluorescence, higher = induction” value was “inactive”.
For CC(=O)n1cc(C(C[N+](=O)[O-])SCCN)c2ccccc21 (stereo not given), the “GFP fluorescence, higher = induction” value was “inactive”.
COc1cc(CNC(=O)CCCCCCC(C)C)ccc1O was tested, and the “GFP fluorescence, higher = induction” value was “inactive”.
In the case of C/C(=N\NC(=O)c1cc2ccccc2cc1O)c1ccccn1, the “GFP fluorescence, higher = induction” value is reported as “inactive”.
O=c1c2cc(Br)ccc2nc(-c2ccc([N+](=O)[O-])cc2)n1O was tested, and the “GFP fluorescence, higher = induction” value was “inactive”.
For Cc1cc(=O)oc2cc(Oc3ccc([N+](=O)[O-])cc3C(F)(F)F)ccc12, the “GFP fluorescence, higher = induction” value was “inactive”.
With Cc1cccc(C(=O)NNC(=S)NC(=O)c2ccccc2)c1 the “GFP fluorescence, higher = induction” value was “inactive”.

Same assay, conditions: S. cerevisiae CIT2-GFP strain, flow cytometry fluorescence, 3 h
In the case of N/C(=N\OC(=O)c1cc(Br)ccc1Cl)c1ccccn1, the EC50 is reported as 4.11 µM.
In the case of Cc1ccc(O)c(N=Nc2nccs2)c1, the EC50 is reported as 11.3 µM.
Cc1ccc(NC(=O)ON=C2CCCC2)cc1 gave an EC50 of 3.79 µM.
